# In patent US11440935B2, “3″,5″-dimethoxybenzoyl-3′-amino-3′-deoxy adenosine-5′-triphosphates and pharmaceutical uses thereof” (Danmir Therapeutics, LLC, priority 2018, dated 2022):
# Several values for one entry are separate records, joined by “and”; a condition that tells them apart may be missing. Identical values can stand only once. Entries after “also recorded” stand apart in the source; their conditions may differ. Counter-ions that a name gives are not always drawn.
# Experiments:
# [1] = tested on: P2X3 receptor; conditions: guinea pig airway-specific primary nodose ganglion cell afferents; cited from earlier work
# [2] = tested on: conscious guinea-pigs; test: Aerosolized ATP-induced cough in conscious free moving guinea-pigs; assay type: in vivo, guinea-pig
# Method: This study was performed in 6 guinea-pigs. The housing room was constantly ventilated, and the temperature kept at ˜23° C. After quarantine, the animals were individually placed in a whole-body, unrestrained, plethysmograph chamber (model PLY3215, Buxco Electronics Inc., Troy, N.Y.) for ˜40 min once a day for two continuous days before the cough test. All GPs were weighed before the cough study.
# ATP was purchased from Sigma-Aldrich (Cat #A2383-10G). Solutions of ATP used for aerosol challenge were freshly made just prior to use by dissolving the powder in 0.9% saline (NaCl) solution. Solutions of DT-0111 used for aerosol administration were freshly made by dissolving the powder in 0.9% saline (NaCl) solution.
# A plethysmograph chamber was continuously flushed with normoxic (21% O2 and 79% N2) room air at 2 L/min. The same amount of air was drawn through the chamber base outlets using a Buxco bias flow regulator to keep the chamber bias flow balanced. ATP or DT solution was aerosolized by using a vibrating mesh nebulizer (Ireland Ltd., Galway Ireland, AG-AL1100). The output rate of delivered aerosol was around 0.5 ml/min with droplet size (volume median diameter) at 2.5-4.0 μm (manufacture's indications). The aerosol was mixed with airflow and directly delivered into the plethysmograph chamber. The latter was placed in a standard chemical fume hood (size: 3×6 ft) installed in a standard laboratory.
# A guinea-pig was placed in the chamber again after adaptation. Following stabilization, #1 guinea-pig was exposed to aerosolized ATP at 6 mg/ml, 24 mg/ml, and then 48 mg/ml for 5 min with an interval of 30 min. The remaining animals (#2-#6 guinea-pigs) were exposed to aerosolized ATP at 48 mg/ml for 5 min. Approximately 140 min later, the same dose of ATP was repeated immediately after DT-0111 aerosol inhalation (12 mg/ml for 5 min). […] The cough sound and behavioral activities were continuously monitored and recorded before (for 3 min), during 5 min aerosol delivery, and 20 min after cessation of the delivery.
# Setup of the cough recording system. The top of the plethysmograph chamber was connected with a plastic tube that was attached by the nebulizer. Normoxic air driven by the nebulizer controller was flowed into the chamber and sucked out by the bias flow regulator with the in and out flow volume balanced (2.0 L/min). To detect cough, a microphone system was mounted in the roof of the chamber to record sound; a video camera was placed outside of the chamber to monitor animal body posture; and a Buxco pneumotachograph (differential pressure transducer) attached to the chamber to record airflow. All signals generated by video camera, microphone, and pressure transducer were amplified and recorded continuously by PowerLab/8 sp (model ML 785; ADInstruments Inc., Colorado Springs, Colo.) and a computer with the LabChart Pro 7 software.
# Cough count. A typical cough response, as reported before (Girard et al., Eur Respir J, 1995; Blasko et al., American Journal of Advanced Drug Delivery. 5:131-138, 2017; Corboz et al., Journal of Pharmacology and Experimental Therapeutics. 363: 348-357, 2017), was defined by the simultaneous appearance of: 1) a transient and great change in the airflow (a rapid inspiration followed by rapid expiration); 2) a typical cough sound with the peak power density at 1-2 kHz in frequency spectrum (sneeze at 3.5-6.5 kHz); and 3) animal body (head) posture and movement.
# [3] = molecular target: T1, P2X2/3 receptor (Rattus norvegicus, UniProt P49653+P49654); test: Nodose ganglion neuron assay of P2X2/3 receptor antagonism (whole-cell voltage-clamp); assay type: cell-based; conditions: rat nodose ganglionic cell; for antagonism of ATP-induced inward current: ATP 10 μM, whole-cell voltage clamp
# T1 construct: Single neurons were enzymatically isolated from rats' nodose ganglia; from tissue; host or cells: dissociated nodose ganglion neurons of 17-day-old male Sprague-Dawley rats
# T1 sequence (P49653 1-472): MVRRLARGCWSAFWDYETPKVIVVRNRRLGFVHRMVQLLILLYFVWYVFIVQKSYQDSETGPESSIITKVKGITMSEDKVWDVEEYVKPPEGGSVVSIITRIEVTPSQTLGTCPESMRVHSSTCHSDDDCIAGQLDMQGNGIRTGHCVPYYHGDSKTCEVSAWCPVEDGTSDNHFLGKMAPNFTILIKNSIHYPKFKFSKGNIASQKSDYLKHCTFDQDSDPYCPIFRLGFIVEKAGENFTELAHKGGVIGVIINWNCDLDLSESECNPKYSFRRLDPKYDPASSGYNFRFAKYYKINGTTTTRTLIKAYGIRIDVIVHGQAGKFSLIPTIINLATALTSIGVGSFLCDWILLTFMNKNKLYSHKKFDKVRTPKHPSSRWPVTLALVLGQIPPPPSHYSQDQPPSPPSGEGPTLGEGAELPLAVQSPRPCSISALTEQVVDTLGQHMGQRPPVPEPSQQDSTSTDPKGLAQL
# T1 sequence (P49654 1-397): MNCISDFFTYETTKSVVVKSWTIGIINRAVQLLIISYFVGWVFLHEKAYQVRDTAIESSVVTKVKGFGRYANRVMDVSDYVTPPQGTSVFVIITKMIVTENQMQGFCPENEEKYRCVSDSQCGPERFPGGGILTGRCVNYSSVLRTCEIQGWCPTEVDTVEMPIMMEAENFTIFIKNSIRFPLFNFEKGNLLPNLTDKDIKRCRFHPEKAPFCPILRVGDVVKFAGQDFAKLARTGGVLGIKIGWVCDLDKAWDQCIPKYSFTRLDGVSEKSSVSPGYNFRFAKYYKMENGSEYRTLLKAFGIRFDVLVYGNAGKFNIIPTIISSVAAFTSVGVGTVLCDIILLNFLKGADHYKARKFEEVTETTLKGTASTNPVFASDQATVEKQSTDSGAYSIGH
# Method: Single neurons were enzymatically isolated from rats' nodose ganglia as described by Zhong et al., Br J Pharmacol 1998; 125, 771-781. Briefly, 17- day old male Sprague-Dawley rats were killed by CO2 inhalation. Ganglia were rapidly dissected and placed in Leibovitz's L-15 medium (Life Technologies, Paisley, UK). Ganglia were desheathed, cut and incubated in 4 ml Ca^2+/Mg^2+-free Hanks' balanced salt solution with 10 mm Hepes buffer (pH 7.0) (HBSS) (Life Technologies) containing 1.5 mg ml-1 collagenase (Class-II; Worthington Biochemical Corporation, Reading, UK) and 6 mg ml-1 bovine serum albumin (Sigma) at 37° C. for 40 min. Ganglia were then incubated with 4 ml HBSS containing 1 mg ml-1 trypsin (Sigma) at 37° C. for 20 min. The solution was replaced with 3 ml of growth medium comprising L-15 medium supplemented with 10% bovine serum, 50 ng ml-1 nerve growth factor, 0.2% NaHCO3, 5.5 mg ml-1 glucose, 200 IU ml-1 penicillin and 200 μg ml-1 streptomycin. The ganglia were dissociated into single neurons by gentle trituration. The cells were then centrifuged at 160 g for 5 min, resuspended in 1 ml of growth medium, and plated onto 35 mm Petri dishes coated with 10 μg ml-1 laminin (Sigma). Cells were maintained at 37° C. in a humidified atmosphere containing 5% CO2 and used between 2 and 48 hours after plating.
# Whole-cell voltage-clamp recordings were performed at room temperature using an Axopatch 200B amplifier (Axon Instruments, Union City, Calif., USA). Membrane potential was held at […]. The external solution contained (mM): 154 NaCl, 4.7 KCl, 1.2 MgCl2, 2.5 CaCl2), 10 Hepes, 5.6 glucose, and the pH was adjusted to 7.4 using NaOH. Recording electrodes (resistance […]) were filled with an internal solution which contained (mm): 56 citric acid, 3 MgCl2, 10 CsCl, 10 NaCl, […], 0.1 EGTA, 10 tetraethylammonium chloride, and the pH was adjusted to 7.2 using CsOH (total Cs+concentration 170 mm). […] Solution exchange measured by changes in open tip current was complete in 200 ms; however, complete exchange of solution around an intact cell was slower (<1 s). […]
# [4] = tested on: P2X3-P2X2/3; conditions: experimental animals; cited from earlier work
# [5] = ATP (48 mg/ml) aerosol 5 min alone, per guinea-pig
smiles,measurement,setting,value
COc1cc(C(C)C)c(Oc2cnc(N)nc2N)cc1I [AF-353],effect on TRPV4 receptor activation effects (Aδ fiber stimulation and coughing),[1],markedly attenuated
"Nc1ncnc2c1ncn2[C@@H]1O[C@H](COP(=O)(O)OP(=O)(O)OP(=O)(O)O)[C@@H](O)[C@H]1O [ATP, adenosine 5′-triphosphate]",cough evoked by aerosolized ATP,"[2]; ATP 48 mg/ml, 5 min exposure, all animals",evoked significant coughs
same,Bout Cough B1# (cough number in first bout),[2]; [5],24 and 14 and 18 and 19 and 21
same,Individual Cough,[2]; [5],3 and 0 (2×) and 1 (3×)
same,Subtotal coughs,"[2]; ATP (48 mg/ml) aerosol 5 min alone, per guinea-pig and Mean",27 and 24 and 35 and 19 and 22
"COc1cc(OC)cc(C(=O)NC2C(O)[C@H](n3cnc4c(N)ncnc43)O[C@@H]2COP(=O)(O)OP(=O)(O)OP(=O)(O)O)c1 (stereo partly drawn) [Compound 11, 3″,5″-Dimethoxybenzoyl-3′-amino-3′-deoxyadenosine-5′-triphosphate Triethyl Ammonium Salt]",antagonism of ATP-induced inward current,"[3]; listed as 3″,5″-dimethoxybenzoyl-3′-amino-3′-deoxyadenosine-5′-triphosphate triethylammoni, Ammonium Salt",substantially abrogated
same,antagonism of ATP-induced inward current,"[3]; listed as compound 11, Ammonium Salt",substantially abrogated; also recorded: complete antagonism at the higher concentrations
same,reversibility of antagonism on washout,[3]; after washing out the antagonist,reversible
O=C(O)c1cc(C(=O)O)c(C(=O)N(Cc2cccc(Oc3ccccc3)c2)[C@H]2CCCc3ccccc32)cc1C(=O)O [Compound A-317491],effect on cyclophosphamide (CYP)-induced cystitis,[4],inhibit cyclophosphamide (CYP)-induced cystitis
